Four molecules from patent US20170298438A1, “DETECTION AND TREATMENT OF BREAST CANCER” (The European Molecular Biology Laboratory, priority 2011, published 2017) can be followed below.

What all share (assay type): cell-based, human
One data set relates to HeLa Kyoto cells. The data set is described as follows: H3S10ph immuno-labelling of synchronised HeLa Kyoto cells. As to conditions: thymidine double block, BI2536 at 5 μM. As for the experimental part:
HeLa Kyoto cells were synchronised in S phase by a double thymidine block (Sigma). Briefly, a final concentration of 3 mM thymidine was added to the culture medium for 18 h, followed by release into fresh culture medium for 9 h and a second block with 3 mM thymidine for 17 h. […] Cell synchronisation was confirmed by flow cytometry. For immunofluorescence, HeLa Kyoto cells were grown on coverslips (12 mm #1 VWR International) and synchronised as described above. The synchronised cells were rinsed in PBS, fixed in 1% PFA, permeabilised with 0.1% Triton X-100/0.02% SDS, and blocked in 2% BSA. After the blocking step, phosphohistone H3 (H3S10ph) antibody was applied for 1 h at a dilution of 1/500 and after three washes with PBS, Alexa Fluor 594 antibody was added at a dilution of 1/300 for 1 h. Coverslips were washed three times in PBS and mounted with Vectashield non-fade DAPI (Vector Laboratories).

For a further data set, the system named is T47D cells. The data set is described as follows: H3S10ph immuno-staining, mitotic phase distribution in T47D cells. Set-up: reduction of the proportion of mitotic T47D cells in prophase/prometaphase: dose or concentration left out as unconfirmed. As for the experimental part:
(§1) To prepare cell monolayers, 0.5×10^6 cells were cytospun onto glass slides at 800×g for 5 min using a Cytospin 4 cytocentrifuge (Thermo Scientific), air dried and fixed in 4% neutral buffered formalin overnight.
Section deparaffinisation, antigen retrieval and immuno-staining were performed using the Bond III Autostainer and Bond Polymer Refine Detection kit (Leica) according to the manufacturer's instructions. Heat-mediated antigen retrieval and proteolytic digestion were used for H3S10ph and PAPPA antigens, respectively. Primary antibodies were applied for 40 min at the following dilutions: PAPP-A at 1/200; H3S10ph at 1/4000. Cytospin preparations were immuno-stained using the same protocol without the deparaffinisation step. Incubation without primary antibody was used as a negative control and sections of tonsil and placenta were used as positive controls for H3S10ph and PAPPA antibodies, respectively.
Two consecutive serial sections from each tissue sample and two cytospin preparations for each cell line were immuno-stained for H3S10ph for analysis of mitotic phase distribution. […]
PAPPA and ZMPSTE24 (control) are zinc-dependent metalloproteinases of the metzincin superfamily. […] PAPPA and ZMPSTE24 expression levels were determined by qRT-PCR and western blot. […]

The next data set deals with BT549 cells. The data set is described as follows: H3S10ph immuno-labelling, mitotic phase distribution in BT549 cells. As to conditions: BT549 cytospin preparations. As for the experimental part: as §1
Section deparaffinisation, antigen retrieval and immuno-staining were performed using the Bond III Autostainer and Bond Polymer Refine Detection kit (Leica) according to the manufacturer's instructions. Heat-mediated antigen retrieval and proteolytic digestion were used for H3S10ph and PAPPA antigens, respectively. Primary antibodies were applied for 40 min at the following dilutions: PAPP-A at 1/200; H3S10ph at 1/4000. Cytospin preparations were immuno-stained using the same protocol without the deparaffinisation step. […]
PAPPA was silenced by RNAi with a specific RNA duplex targeting PAPPA mRNA (Ambion s10042; sense 5′-GAGCCUACUUGGAUGUUAAtt-3′ (SEQ ID NO. 37) and antisense 5′-UUAACAUCCAAGUAGGCUCtg-3′ (SEQ ID NO. 38) or, alternatively, a pool of duplexes (ON-TARGETpIus SMARTpooI, Dharmacon). Non-targeting siRNA (Stealth RNAi Negative Control Med GC, Invitrogen) was used as negative control. All transfections were performed with Lipofectamine 2000 (Invitrogen). PAPPA siRNA at 100 nM final concentration was used to achieve efficient knock-down. Cells were harvested at the indicated time points post-transfection. Knock-down efficiency was assessed by qRT-PCR and/or Western blot. […]

For `CC[C@@H]1C(=O)N(C)c2cnc(Nc3ccc(C(=O)NC4CCN(C)CC4)cc3OC)nc2N1C1CCCC1` [BI2536], the “phosphohistone H3 (H3S10ph) detection in synchronised cells” value with HeLa Kyoto cells is listed as “enrichment of prometaphase cells”.
The same measure, in the same setting: to `Cc1cn([C@H]2C[C@H](O)[C@@H](CO)O2)c(=O)[nH]c1=O` [thymidine] belongs “not detected”.
For “IGF-1: recombinant Human IGF-1 (IMR-233, Imgenex); IGF receptor agonist”, in the data set on T47D cells (T47D cells (PAPPA promoter methylated)), the “effect on mitotic delay phenotype in T47D cells” value is “reverses the mitotic delay phenotype”. For the same molecule, in the data set with T47D cells (recombinant human IGF-1, harvested 24 h later, cells serum starved 48 h, versus control), the “reduction of the proportion of mitotic T47D cells in prophase/prometaphase” value is reported as “approximately one half”.
For the molecule “siRNA-42: single RNA duplex targeting PAPPA mRNA, Ambion s10042 (SEQ ID NO. 37 and 38) (chain 1 GAGCCUACUUGGAUGUUAA; chain 2 UUAACAUCCAAGUAGGCUC; listed as RNA, chemistry not given here)”, in the data set on BT549 cells, the “mitotic phase phenotype in BT549 cells” value was “prophase/prometaphase delay phenotype”.
